Reference: patent publication US20240308968A1, “FUNGICIDAL SUBSTITUTED HETEROCYCLES” (FMC Corporation, priority 2021, published 2024)

Experiments:
Assay type in all cases: in vivo
[1] = test system: Puccinia recondita f. sp. Tritici; test: Test B: preventive spray on wheat seedlings, wheat leaf rust disease rating; conditions: 100 = 100% disease control, 0 = no control; for pest or weed control at 50 ppm: Puccinia recondita, 192 h
Excerpt: (§1) General protocol for preparing test suspensions for Tests A-F: the test compounds were first dissolved in acetone in an amount equal to 3% of the final volume and then suspended at the desired concentration (in ppm) in acetone and purified water (50/50 mix by volume) containing 50 to 250 ppm of the surfactant PEG400 (polyhydric alcohol esters). The resulting test suspensions were then used in Tests A-F.
The test solution was sprayed to the point of run-off on wheat seedlings. The following day the seedlings were inoculated with a spore suspension of Puccinia recondita f. sp. Tritici (the causal agent of wheat leaf rust) and incubated in a saturated atmosphere at 20° C. for 24 h, and then moved to a growth chamber at 20° C. for 7 days, after which time disease ratings were made.
(§2) The test suspension was sprayed to the point of run-off on tomato seedlings. The following day the seedlings were inoculated with a spore suspension of Alternaria solani (the causal agent of tomato early blight) and incubated in a saturated atmosphere at 27° C. for 48 h, and then moved to a growth chamber at 20° C. for 3 days, after which time visual disease ratings were made. A rating of 100 indicates 100% disease control and a rating of 0 indicates no disease control (relative to the controls). A dash (-) indicates the compound was not tested.

[2] = test system: Blumeria graminis f. sp. Tritici; test: Test C: preventive spray on wheat seedlings, wheat powdery mildew disease rating; conditions: 100 = 100% disease control, 0 = no control; for pest or weed control at 50 ppm: Blumeria graminis, 192 h
Excerpt: as §1
The test suspension was sprayed to the point of run-off on wheat seedlings. The following day the seedlings were inoculated with a spore dust of Blumeria graminis f. sp. Tritici, (also known as Erysiphe graminis f. sp. Tritici, the causal agent of wheat powdery mildew) and incubated in a growth chamber at 20° C. for 8 days, after which time visual disease ratings were made.
as §2

Botrytis cinerea = test: Test E: preventive spray on tomato seedlings, tomato Botrytis disease rating; conditions: 100 = 100% disease control, 0 = no control; for pest or weed control at 50 ppm: Botrytis cinerea, 120 h
Excerpt: as §1
The test suspension was sprayed to the point of run-off on tomato seedlings. The following day the seedlings were inoculated with a spore suspension of Botrytis cinerea (the causal agent of tomato Botrytis) and incubated in a saturated atmosphere at 20° C. for 48 h, and then moved to a growth chamber at 24° C. for 3 days, after which time visual disease ratings were made.
as §2

Zymoseptoria tritici = test: Test A: preventive spray on wheat seedlings, wheat leaf blotch disease rating; conditions: 100 = 100% disease control, 0 = no control; for pest or weed control at 50 ppm: Zymoseptoria tritici, 456 h
Excerpt: as §1
The test solution was sprayed to the point of run-off on wheat seedlings. The following day the seedlings were inoculated with a spore suspension of Zymoseptoria tritici (the causal agent of wheat leaf blotch) and incubated in a saturated atmosphere at 24° C. for 48 h, and then moved to a growth chamber at 20° C. for 17 days, after which time disease ratings were made. […]

Alternaria solani = test: Test F: preventive spray on tomato seedlings, tomato early blight disease rating; conditions: 100 = 100% disease control, 0 = no control; for pest or weed control at 50 ppm: Alternaria solani, 120 h
Excerpt: as §1, §2

Phakopsora pachyrhizi = test: Test D: preventive spray on soybean seedlings, Asian soybean rust disease rating; conditions: 100 = 100% disease control, 0 = no control; for pest or weed control at 50 ppm: Phakopsora pachyrhizi, 216 h
Excerpt: as §1
The test solution was sprayed to the point of run-off on soybean seedlings. The following day the seedlings were inoculated with a spore suspension of Phakopsora pachyrhizi (the causal agent of Asian soybean rust) and incubated in a saturated atmosphere at 22° C. for 24 h and then moved to a growth chamber at 22° C. for 8 days, after which time visual disease ratings were made.
as §2

SMILES | Test B disease control rating ([1]; 50 ppm) [%] | Test C disease control rating ([2]; 50 ppm) [%] | Test E disease control rating (Botrytis cinerea; 50 ppm) [%] | Test A disease control rating (Zymoseptoria tritici; 50 ppm) [%] | Test F disease control rating (Alternaria solani; 50 ppm) [%] | Test D disease control rating (Phakopsora pachyrhizi; 50 ppm) [%] | further results
Cn1nc(-c2ccsc2)c(-c2c(F)cccc2F)cc1=O [Compound 1] | – | – | – | – | – | – | Test B disease control rating ([1]; 250 ppm): 0%; Test C disease control rating ([2]; 250 ppm): 0%; Test E disease control rating (Botrytis cinerea; 250 ppm): 0%; Test A disease control rating (Zymoseptoria tritici; 250 ppm): 0%; Test F disease control rating (Alternaria solani; 250 ppm): 0%; Test D disease control rating (Phakopsora pachyrhizi; 250 ppm): 65%
Cn1nc(-c2cccnc2)c(-c2c(F)cccc2F)cc1=O [Compound 2] | 0 | 0 | 0 | 0 | 0 | 0 | –
Cn1nc(-c2ccoc2)c(-c2c(F)cccc2F)cc1=O [Compound 3] | – | – | – | – | – | – | Test B disease control rating ([1]; 250 ppm): 0%; Test C disease control rating ([2]; 250 ppm): 0%; Test E disease control rating (Botrytis cinerea; 250 ppm): 0%; Test A disease control rating (Zymoseptoria tritici; 250 ppm): 0%; Test F disease control rating (Alternaria solani; 250 ppm): 0%; Test D disease control rating (Phakopsora pachyrhizi; 250 ppm): 38%
Cc1ccncc1-c1nn(C)c(=O)c(Cl)c1-c1ccc(F)cc1Cl [Compound 4, 4-chloro-5-(2-chloro-4-fluorophenyl)-2-methyl-6-(4-methyl-3-pyridinyl)-3(2H)-pyridazinone] | – | – | – | – | – | – | pest or weed control at 50 ppm ([1]; 50 ppm): 89%; pest or weed control at 50 ppm ([2]; 50 ppm): 89%; pest or weed control at 50 ppm (Botrytis cinerea; 50 ppm): 65%; pest or weed control at 50 ppm (Zymoseptoria tritici; 50 ppm): 100%; pest or weed control at 50 ppm (Alternaria solani; 50 ppm): 70%; pest or weed control at 50 ppm (Phakopsora pachyrhizi; 50 ppm): 38%
Cc1c(-c2ccc(F)cc2Cl)c(-c2ccsc2)nn(C)c1=O [Compound 5] | 74 | 96 | 93 | 100 | 91 | 21 | –
Cc1c(-c2ccc(F)cc2Cl)c(-c2ccsc2Br)nn(C)c1=O [Compound 6] | 100 | 99 | 91 | 100 | 99 | 78 | –
Cc1c(-c2ccc(F)cc2Cl)c(-c2ccsc2Cl)nn(C)c1=O [Compound 7, 5-(2-chloro-4-fluorophenyl)-6-(2-chloro-3-thienyl)-2,4-dimethyl-3(2H)-pyridazinone] | – | – | – | – | – | – | pest or weed control at 50 ppm ([1]; 50 ppm): 100%; pest or weed control at 50 ppm ([2]; 50 ppm): 99%; pest or weed control at 50 ppm (Botrytis cinerea; 50 ppm): 97%; pest or weed control at 50 ppm (Zymoseptoria tritici; 50 ppm): 99%; pest or weed control at 50 ppm (Alternaria solani; 50 ppm): 99%; pest or weed control at 50 ppm (Phakopsora pachyrhizi; 50 ppm): 100%
Cc1sccc1-c1nn(C)c(=O)c(C)c1-c1ccc(F)cc1Cl [Compound 8] | 100 | 99 | 94 | 99 | 99 | 96 | –
Cc1c(-c2ccc(F)cc2Cl)c(-c2cccs2)nn(C)c1=O [Compound 9] | 79 | 95 | 98 | 100 | 16 | 8 | –
Cc1c(-c2ccc(F)cc2Cl)c(-c2ccc(Cl)s2)nn(C)c1=O [Compound 10] | 68 | 96 | 96 | 100 | 16 | 12 | –
Cc1cnn(-c2nn(C)c(=O)c(C)c2-c2ccc(F)cc2Cl)c1 [Compound 11] | 0 | 97 | 91 | 70 | 24 | 0 | –
Cc1cnn(-c2nn(C)c(=O)c(C)c2-c2ccccc2Cl)c1 [Compound 12] | 0 | 0 | 0 | 0 | 15 | 17 | –
Cc1c(-c2ccc(F)cc2Cl)c(-c2cc(Br)sc2Br)nn(C)c1=O [Compound 13] | 80 | 73 | 90 | 99 | 0 | 0 | –
Cc1cscc1-c1nn(C)c(=O)c(C)c1-c1ccc(F)cc1Cl [Compound 14] | 99 | 97 | 96 | 100 | 94 | 72 | –
Cc1c(-c2nn(C)c(=O)c(C)c2-c2ccc(F)cc2Cl)csc1Br [Compound 15] | 100 | 99 | 92 | 100 | 99 | 24 | –
Cc1c(-c2ccc(F)cc2Cl)c(-c2sc(Br)cc2Br)nn(C)c1=O [Compound 16] | 68 | 64 | 37 | 99 | 0 | 0 | –
Cc1c(-c2ccc(F)cc2Cl)c(-c2ccc(Br)s2)nn(C)c1=O [Compound 17] | 68 | 56 | 39 | 99 | 0 | 12 | –
COc1ccc(Cl)c(-c2nn(C)c(=O)c(C)c2-c2ccsc2C)c1 [Compound 18] | 92 | 93 | 97 | 96 | 0 | 13 | –
Cc1c(-c2ccc(F)cc2Cl)c(-c2ccn(C)n2)nn(C)c1=O [Compound 20] | 19 | 72 | 33 | 0 | 0 | 0 | –
COc1ccc(Cl)c(-c2nn(C)c(=O)c(C)c2-c2cnccc2C)c1 [Compound 21, 6-(2-chloro-5-methoxyphenyl)-2,4-dimethyl-5-(4-methyl-3-pyridinyl)-3(2H)-pyridazinone] | – | – | – | – | – | – | pest or weed control at 50 ppm ([1]; 50 ppm): 68%; pest or weed control at 50 ppm ([2]; 50 ppm): 86%; pest or weed control at 50 ppm (Botrytis cinerea; 50 ppm): 96%; pest or weed control at 50 ppm (Zymoseptoria tritici; 50 ppm): 54%; pest or weed control at 50 ppm (Alternaria solani; 50 ppm): 0%; pest or weed control at 50 ppm (Phakopsora pachyrhizi; 50 ppm): 25%
Cc1c(-c2ccc(F)cc2Cl)c(-c2nn(C)cc2Cl)nn(C)c1=O [Compound 22] | 93 | 98 | 94 | 94 | 0 | 53 | –
COc1cc(-c2cc(C#N)c(=O)n(C)c2-c2ccc(F)cc2Cl)ccc1Cl [Compound 160] | – | – | – | – | – | – | Test B disease control rating ([1]; 250 ppm): 80%; Test C disease control rating ([2]; 250 ppm): 0%; Test E disease control rating (Botrytis cinerea; 250 ppm): 94%; Test A disease control rating (Zymoseptoria tritici; 250 ppm): 46%; Test D disease control rating (Phakopsora pachyrhizi; 250 ppm): 0%
